This assay addresses T1, human PAD4 (Homo sapiens, UniProt Q9UM07).
T1 construct: human PAD4 (NM_012387), A2-P663, was PCR amplified; His-SUMO (N, cleaved yes); made in house; host or cells: E. coli BL21(DE3)
Description: In vitro PAD4 BAEE biochemical assay. As to conditions: BAEE substrate 3 mM, 5 nM PAD4, 2 mM calcium chloride; geometric mean of multiple experiments. In outline: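 Assay was run at 25 °C using 3 mM BAEE and 5 nM human PAD4 after a 30 min compound preincubation; ammonia produced over 2 h was quantified by OPA-derived fluorescence. Full inhibition was defined by 50 µM BB-Cl-Amidine, and IC50 came from variable-slope nonlinear regression.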

Structures are written as SMILES. pIC50: −log10 of the molar value.

T1 sequence (Q9UM07 2-663): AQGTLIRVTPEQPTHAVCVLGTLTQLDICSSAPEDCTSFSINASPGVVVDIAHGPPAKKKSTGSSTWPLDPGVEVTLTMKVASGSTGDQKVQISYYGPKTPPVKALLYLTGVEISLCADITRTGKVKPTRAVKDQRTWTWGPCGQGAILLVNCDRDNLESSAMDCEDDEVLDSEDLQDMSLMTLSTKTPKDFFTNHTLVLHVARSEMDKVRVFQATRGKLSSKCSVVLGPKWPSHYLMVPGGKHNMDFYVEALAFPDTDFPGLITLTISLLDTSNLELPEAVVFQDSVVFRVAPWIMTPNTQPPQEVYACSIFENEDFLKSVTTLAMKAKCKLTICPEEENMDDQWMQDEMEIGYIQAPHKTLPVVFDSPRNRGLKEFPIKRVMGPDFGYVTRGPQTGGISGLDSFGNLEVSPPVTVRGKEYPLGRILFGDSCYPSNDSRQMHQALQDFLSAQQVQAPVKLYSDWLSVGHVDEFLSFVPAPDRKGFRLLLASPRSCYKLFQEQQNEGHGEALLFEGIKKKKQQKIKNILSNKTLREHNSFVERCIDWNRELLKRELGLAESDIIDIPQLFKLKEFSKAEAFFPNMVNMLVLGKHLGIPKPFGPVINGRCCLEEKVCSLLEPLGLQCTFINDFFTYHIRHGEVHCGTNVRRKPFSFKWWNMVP

As usually defined, the pIC50 is −log10 of the IC50, conventionally taken in molar units. In the case of `COc1cc(C(=O)N2C[C@H](N)[C@@H]3CC[C@H]2C3)cc2nc(-c3cc4ccc5nc4n3CCCCC[C@@H]3C[C@@]3(C)C(=O)N[C@@H]5C)n(C)c12` [Example 917, (2~{R},5~{R},7~{R})-14-[5-[(1~{S),4~{R},5~{R})-4-amino-2-azabicyclo[3.2.1]octane-2-carbonyl]-7-methoxy-1-methyl-benzimidazol-2-yl]-2,5-dimethyl-3,13,19-triazatetracyclo[11.5.2.0^ {5,7}.0^{16,20}]icosa-1(19), 14,16(20),17-tetraen-4-one], the negative-log IC50 (pIC50) was 7.57. On to `COc1cc(C(=O)N[C@H]2CNCC[C@@H]2F)cc2nc(-c3cc4ccc5nc4n3CCCCCc3cnccc3C(=O)N[C@@H]5C)n(C)c12` [Example 344, ~{N}-[(3~{S},4~{S})-4-fluoro-3-piperidyl]-7-methoxy-1-methyl-2-[(2~{R})-2-methyl-4-oxo-3,8,16,22-tetrazatetracyclo[14.5.2.0^{5,10}.0^{19,23}]tricosa-1(22),5,7,9,17,19(23),20-heptaen-17-yl]benzimidazole-5-carboxamide], for which the negative-log IC50 (pIC50) is 7.29.

Regarding `COc1cc(C(=O)N2CCC[C@@H](N)C2)cc2nc(-c3cc4ccc5nc4n3C[C@H]3C[C@@H]3COC(C)CC(=O)N[C@@H]5C)n(C)c12` (stereo partly shown) [Example 271, (3~{S},5~{S},12~{R})-18-[5-[(3~{R})-3-aminopiperidine-1-carbonyl]-7-methoxy-1-methyl-benzimidazol-2-yl]-8,12-dimethyl-7-oxa-1,11,20-triazatetracyclo[11.5.2.0^{3,5}.0^{16,19}] icosa-13(20),14,16(19),17-tetraen-10-one], the pIC50 is 7.19. Then `COc1cc(C(=O)N[C@@H]2CC[C@H](C)NC2)cc2nc(-c3cc4ccc5nc4n3CCCCCCC3(CC3)C(=O)N[C@@H]5C)n(C)c12` [Example 72, 7-methoxy-1-methyl-2-[(11~{R})-11-methyl-9-oxo-spiro[1,10,19-triazatricyclo[10.5.2.0^{15,18}]nonadeca-12(19),13,15(18),16-tetraene-8,1′-cyclopropane]-17-yl]-~{N}-[(3~{R},6~{S})-6-methyl-3-piperidyl]benzimidazole-5-carboxamide], with 6.51; and `COc1cc(C(=O)N2CCC[C@@H](N)C2)cc2nc(-c3cc4ccc5nc4n3C/C=C(/F)COCCC(=O)N[C@@H]5C)n(C)c12` [Example 620, (3~{E},11~{R})-17-[5-[(3~{R})-3-aminopiperidine-1-carbonyl]-7-methoxy-1-methyl-benzimidazol-2-yl]-4-fluoro-11-methyl-6-oxa-1,10,19-triazatricyclo[10.5.2.0^ {15,18}]nonadeca-3,12(19),13,15(18), 16-pentaen-9-one], with 7.44. `COc1cc(C(=O)N2CC[C@@H](OC)[C@@H](N)C2)cc2nc(-c3cc4ccc5nc4n3CCCCCCC3(CC3)C(=O)N[C@@H]5C)n(C)c12` [Example 62, (11~{R})-17-[5-[(3~{S},4~{R})-3-amino-4-methoxy-piperidine-1-carbonyl]-7-methoxy-1-methyl-benzimidazol-2-yl]-11-methyl-spiro[1,10,19-triazatricyclo[10.5.2.0^{15,18}]nonadeca-12(19),13,15(18),16-tetraene-8,1′-cyclopropane]-9-one]: the pIC50 is 6.82. As for `C[C@H]1NC(=O)C2C[C@H]2CCCCCn2c(-c3nc4cc(C(=O)N[C@H]5CNCC[C@@H]5F)cc(Cl)c4n3C)cc3ccc1nc32` (stereo partly shown) [Example 507, 7-chloro-~{N}-[(3~ {S},4~{S})-4-fluoro-3-piperidyl]-1-methyl-2-[(2~{R},7~{R})-2-methyl-4-oxo-3,13,19-triazatetracyclo[11.5.2.0^ {5,7}.0^{16,20}]icosa-1 (19),14,16(20),17-tetraen-14-yl]benzimidazole-5-carboxamide], the figure is 7.49. As for `COc1cc(C(=O)N2[C@H]3CC[C@@H]2[C@H](N)C3)cc2nc(-c3cc4ccc5cc4n3CCCCCCC(=O)Nc3ccccc3-5)n(C)c12` [Example 94, 17-[5-[(1~{R},2~{R},4~{S})-2-amino-7-azabicyclo[2.2.1]heptane-7-carbonyl]-7-methoxy-1-methyl-benzimidazol-2-yl]-8,16-diazatetracyclo[14.5.2.0^{2,7}.0^{19,23}] tricosa-1(22),2,4,6,17,19(23),20-heptaen-9-one], the figure is 6.78.

Consider `COc1cc(C(=O)N2[C@H]3CC[C@@H]2[C@H](N)C3)cc2nc(-c3cc4ccc5nc4n3CCCCc3cccc(n3)C(=O)N[C@@H]5C)n(C)c12` [Example 37, (2~{R})-15-[5-[(1~{R},2~{R},4~{S})-2-amino-7-azabicyclo[2.2.1]heptane-7-carbonyl]-7-methoxy-1-methyl-benzimidazol-2-yl]-2-methyl-3,14,20,22-tetrazatetracyclo[12.5.2.1^{5,9}.0^{17,21}] docosa-1(20),5,7,9(22),15,17(21),18-heptaen-4-one], for which the pIC50 was 6.26. As to `COc1cc(C(=O)N2C[C@H](N)[C@@H]3CC[C@H]2C3)cc2nc(-c3cc4ccc5nc4n3CCCCCc3c(ccc(Cl)c3F)C(=O)N[C@@H]5C)n(C)c12` [Example 898, (2~{R})-17-[5-[(1~{S},4~{R},5~ {R})-4-amino-2-azabicyclo [3.2.1]octane-2-carbonyl]-7-methoxy-1-methyl-benzimidazol-2-yl]-8-chloro-9-fluoro-2-methyl-3,16,22-triazatetracyclo[14.5.2.0^ {5,10}.0^{19,23}]tricosa-1(22),5(10),6,8,17,19(23),20-heptaen-4-one], the pIC50 is 6.81.

On to `COc1cc(C(=O)N2[C@H]3CC[C@@H]2[C@H](N)C3)cc2nc(-c3cc4ccc5nc4n3CCCCCCCCC(=O)N3CCC[C@H]53)n(C)c12` [Example 130, (2~{R})-17-[5-[(1~{R},2~{R},4~{S})-2-amino-7-azabicyclo[2.2.1]heptane-7-carbonyl]-7-methoxy-1-methyl-benzimidazol-2-yl]-6,16,22-triazatetracyclo[14.5.2.0^{2,6}.0^{19,23}] tricosa-1(22),17,19(23),20-tetraen-7-one], for which the pIC50 is 7.68. As to `C[C@H]1NC(=O)C(C)(C)CCCCCn2c(-c3nc4cc(C(=O)N5C[C@H](N)[C@@H]6CC[C@H]5C6)cc(F)c4n3C3CC3)cc3ccc1nc32` [Example 684, (10~{R})-16-[5-[(1~{S}, 4~{R},5~{R})-4-amino-2-azabicyclo [3.2.1]octane-2-carbonyl]-1-cyclopropyl-7-fluoro-benzimidazol-2-yl]-7,7,10-trimethyl-1,9,18-triazatricyclo[9.5.2.0^ {14,17}]octadeca-11(18), 12,14(17),15-tetraen-8-one], the pIC50 was 7.70. As for `COc1cc(C(=O)N2CC[C@@H](OC)[C@@H](N)C2)cc2nc(-c3cc4ccc5nc4n3CCCCCc3cc(Cl)cnc3C(=O)N[C@@H]5C)n(C)c12` [Example 783, (2~{R})-17-[5-[(3~{S},4~{R})-3-amino-4-methoxy-piperidine-1-carbonyl]-7-methoxy-1-methyl-benzimidazol-2-yl]-8-chloro-2-methyl-3,6,16,22-tetrazatetracyclo[14.5.2.0^ {5,10}.0^{19,23}] tricosa-1(21),5(10),6,8,17,19, 22-heptaen-4-one], the figure is 6.96.

The values above are taken from patent US11976083B2, “Inhibitors of peptidylarginine deiminases” (Gilead Sciences, Inc., priority 2020, dated 2024).
